{
  "source": "paper PMC10955127",
  "about": "(Frontiers in Pharmacology, 2024)",
  "key": {"[1]": {"tested_on": "androgen receptor", "parameters": "method as in ToxCast database", "conditions": "ref ToxCast database; cited from earlier work"}, "[2]": {"tested_on": "estrogen receptor", "parameters": "method as in ToxCast database", "conditions": "ref ToxCast database; cited from earlier work"}, "[3]": {"tested_on": "androgen receptor (AR)", "parameters": "method as in ToxCast", "conditions": "ref ToxCast, cited from earlier work"}, "[4]": {"molecular_target": "acetylcholinesterase (h) (Homo sapiens, UniProt P22303)", "sequence (P22303 32-614)": "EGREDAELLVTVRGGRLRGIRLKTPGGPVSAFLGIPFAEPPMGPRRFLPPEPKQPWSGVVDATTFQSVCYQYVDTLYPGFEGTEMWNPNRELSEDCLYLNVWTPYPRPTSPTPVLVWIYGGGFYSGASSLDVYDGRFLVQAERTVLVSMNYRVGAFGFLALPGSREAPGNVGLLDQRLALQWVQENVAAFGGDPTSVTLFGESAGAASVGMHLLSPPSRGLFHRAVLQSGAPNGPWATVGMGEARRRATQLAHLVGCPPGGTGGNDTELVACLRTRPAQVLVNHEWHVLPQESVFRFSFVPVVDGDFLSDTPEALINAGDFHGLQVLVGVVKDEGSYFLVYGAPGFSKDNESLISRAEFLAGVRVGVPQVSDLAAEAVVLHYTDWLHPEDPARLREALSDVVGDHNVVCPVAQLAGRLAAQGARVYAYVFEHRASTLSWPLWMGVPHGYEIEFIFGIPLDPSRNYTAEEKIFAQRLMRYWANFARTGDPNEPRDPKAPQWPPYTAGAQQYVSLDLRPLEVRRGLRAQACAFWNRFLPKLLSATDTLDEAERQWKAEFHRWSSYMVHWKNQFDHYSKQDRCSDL", "assay": "Pharmacology profiling: acetylcholinesterase", "assay_type": "biochemical"}, "[5]": {"tested_on": "HepG2 reporter cell lines", "assay": "ToxProfiler cell stress assay", "assay_type": "cell-based, human"}, "[6]": {"tested_on": "HepG2 cells", "assay": "Whole-genome transcriptomics dose response (toxicogenomics)", "conditions": "analysis method 1; HepG2, 24 h"}, "[7]": {"tested_on": "HepG2 cells", "conditions": "human, 24 h"}, "[8]": {"tested_on": "thyroid pathway", "parameters": "method as in ToxCast database", "conditions": "ref ToxCast database; cited from earlier work"}, "[9]": {"molecular_target": "Human MDR1 (Homo sapiens, UniProt P08183)", "sequence (P08183 whole entry)": "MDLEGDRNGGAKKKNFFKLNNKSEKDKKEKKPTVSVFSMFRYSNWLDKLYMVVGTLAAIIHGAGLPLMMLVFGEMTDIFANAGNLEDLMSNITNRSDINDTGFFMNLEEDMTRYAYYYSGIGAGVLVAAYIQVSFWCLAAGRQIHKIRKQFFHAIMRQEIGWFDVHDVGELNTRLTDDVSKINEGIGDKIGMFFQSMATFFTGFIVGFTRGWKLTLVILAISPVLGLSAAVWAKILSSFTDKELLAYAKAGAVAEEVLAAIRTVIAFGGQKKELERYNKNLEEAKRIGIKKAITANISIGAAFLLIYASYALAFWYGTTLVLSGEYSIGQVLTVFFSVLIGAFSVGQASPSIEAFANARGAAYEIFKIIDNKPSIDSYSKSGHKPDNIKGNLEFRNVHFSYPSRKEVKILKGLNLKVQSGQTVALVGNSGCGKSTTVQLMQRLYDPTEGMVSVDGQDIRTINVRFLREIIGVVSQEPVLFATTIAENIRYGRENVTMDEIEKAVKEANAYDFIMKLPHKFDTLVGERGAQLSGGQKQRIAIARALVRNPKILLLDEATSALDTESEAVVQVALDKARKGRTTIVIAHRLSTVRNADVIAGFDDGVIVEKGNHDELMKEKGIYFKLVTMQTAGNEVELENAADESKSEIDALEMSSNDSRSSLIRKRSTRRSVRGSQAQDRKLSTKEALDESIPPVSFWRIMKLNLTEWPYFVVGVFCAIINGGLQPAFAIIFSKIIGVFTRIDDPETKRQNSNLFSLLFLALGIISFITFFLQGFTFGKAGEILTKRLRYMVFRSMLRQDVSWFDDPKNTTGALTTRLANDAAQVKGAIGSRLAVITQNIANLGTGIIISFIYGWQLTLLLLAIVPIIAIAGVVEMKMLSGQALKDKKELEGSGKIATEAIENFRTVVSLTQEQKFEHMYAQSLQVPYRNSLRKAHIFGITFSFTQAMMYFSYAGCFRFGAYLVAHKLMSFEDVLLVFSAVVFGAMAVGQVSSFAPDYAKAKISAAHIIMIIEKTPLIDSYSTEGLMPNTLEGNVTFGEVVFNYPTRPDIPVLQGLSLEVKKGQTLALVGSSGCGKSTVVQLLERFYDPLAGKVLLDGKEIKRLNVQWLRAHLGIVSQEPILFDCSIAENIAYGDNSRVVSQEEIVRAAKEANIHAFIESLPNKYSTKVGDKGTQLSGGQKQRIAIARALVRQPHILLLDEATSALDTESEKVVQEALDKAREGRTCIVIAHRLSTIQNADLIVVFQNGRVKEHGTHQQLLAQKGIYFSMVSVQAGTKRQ", "conditions": "not told"}, "[10]": {"tested_on": "TSHR", "parameters": "method as in ToxCast database", "conditions": "ref ToxCast database; cited from earlier work"}, "[11]": {"assay": "in vitro", "assay_type": "in vitro ADME", "method": "[…]. Samples were precipitated with an equal volume of acetonitrile containing internal standards (1 μM diazepam, 1 μM griseofulvin, 10 μM diclofenac) and then centrifuged (4800 x g, room temperature, 5 min) before analysis by UHPLC-MS/HRMS.\nThe amount of compound in the samples was expressed as percentage of remaining compound compared to time point zero (=100%). These percentages were plotted against the corresponding time points. In vitro intrinsic clearance (CLint) and half-life (t1/2) estimates were determined using the rate of precursor disappearance and following formula, based on the well-stirred liver model (Obach 1999):\nt1/2 = half-life [min]; k = slope from the linear regression of log [test compound] versus time plot [1/min]\nWhere CLint = in vitro intrinsic clearance [μl/min/10^6 cells]; t1/2 = half-life [min]; k = slope of the linear regression of log [test compound] versus time plot [1/min]; V = ratio of incubation volume and cell number and fu = unbound fraction in the blood. […]"}, "[12]": {"tested_on": "Aromatase", "parameters": "method as in ToxCast database", "conditions": "ref ToxCast database; cited from earlier work"}},
  "note": "Where two headings read alike, the source gives them in different places.",
  "data": [
    {"smiles": "O=C(O)c1ccccc1O", "note": "[SA, salicylic acid]", "values": [
      {"measurement": "Androgen pathway mRNA induction: Call", "setting": "[1]", "value": "Negative"},
      {"measurement": "Estrogen pathway Reporter protein Antagonist: Call", "setting": "[2]", "value": "Negative"},
      {"measurement": "Androgen: Experimental Data (call)", "setting": "[3]; Tier 0", "value": "Negative"},
      {"measurement": "Androgen: assays active / assays", "setting": "[3]", "value": "1/15 active (noise)"},
      {"measurement": "inhibition at 10 µM", "setting": "[4]; 10 µM SA, two technical replicates", "value": 25.4, "unit": "%"},
      {"measurement": "Inhibition of acetylcholinesterase, follow-up", "setting": "[4]; 10 μM to 1 mM SA", "value": "≤ 5", "unit": "%"},
      {"measurement": "PoD", "setting": "[5]; ICAM1 (indicating inflammation), tested 10 μM to 10 mM", "value": "4,000 µM"},
      {"measurement": "Stress pathway reporters activated", "setting": "[5]; seven reporters", "value": "activated only ICAM1"},
      {"measurement": "PoD (BMDL, lowest pathway)", "setting": "[6]", "value": 213, "unit": "µM"},
      {"measurement": "PoD (BMDL, lowest pathway)", "setting": "[7]", "value": "213 μM (method 1) µM"},
      {"measurement": "Thyroid pathway Reporter protein Agonist: Call", "setting": "[8]", "value": "Negative"},
      {"measurement": "Substrate of MDR1 (efflux)", "setting": "[9]", "value": "not a substrate"},
      {"measurement": "Thyroid pathway Regulation of transcription factor activity (TSHR): Call", "setting": "[10]", "value": "Negative"},
      {"measurement": "Further metabolism in PHH", "setting": "[11]", "value": "not metabolized further"},
      {"measurement": "half-life at 20 µM", "setting": "[11]; both sexes, human, hepatocytes, Half-life in PHH", "value": "> 15.8", "unit": "h"},
      {"measurement": "hepatocyte CLint at 20 µM", "setting": "[11]; both sexes, human, hepatocytes, In vitro intrinsic clearance (CLint, in vitro)", "value": "~0.9", "unit": "µL/min/1e6 cells"},
      {"measurement": "Further metabolism in PHH", "setting": "[11]; both, human, 240 min, 20 µM", "value": "not further metabolized"},
      {"measurement": "Steroidogenesis Aromatase: Call", "setting": "[12]", "value": "Negative"}
    ]}
  ]
}
